Reference: patent US9315451B2, “Tetracycline compounds” (priority 2009, dated 2016)
Like-named read-outs stand apart in the source and are kept apart here.

Experiments:
Type in all cases: in vivo
[1] = test system: S. aureus Smith (ATCC 13709); test: Mouse systemic infection (septicemia) model, S. aureus Smith; conditions: Staphylococcus aureus, CD-1 female mice; for ED50: ATCC13709, dose that prevents 50% of the mice from death, 48 hours
Outline: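 Female CD-1 mice (18-22 g) infected IP with an inoculum lethal to all within 24–48 h. Compound given 1 h post-infection IV ([…]) or PO ([…]), typically six mice per dose group; survival followed for 48 h and PD50 (mg/kg) derived from 48 h survival.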

[2] = test system: Uropathogenic E. coli EC200; test: Murine kidney infection model, uropathogenic E. coli EC200; conditions: Escherichia coli, po, 36 h, BALB/c mice, read-out: EC200 UTI PO, log10 reduction in CFUs in the kidney versus untreated controls
Description: Kidney Infection Models for Uropathogenic E. coli EC200 and K. pneumoniae ESBL Isolate KP453
Compounds were tested in a BALB/c murine kidney infection model challenged with tetracycline-resistant E. coli strain uropathogenic […] via intravenous injection. […] For IV administration test compound was dosed at 3 mg/kg. Thirty-six hours following initiation of treatment, mice were euthanized and bacterial reduction in the kidney was quantified by plating kidney homogenates. Results are reported in Table D as log10 reduction in colony forming units (CFUs) in the kidney versus untreated controls (receiving no test compound).

S. aureus ATCC 13709 = test: Neutropenic thigh model; conditions: neutropenic female CD-1 mice, IV, doses ranging 0.3 to 30 or 0.3 to 20 mg/kg, 24 hours post treatment
Description: Neutropenic Thigh Model Female CD-1 mice were pre-treated with cyclophosphamide to render the mice neutropenic. Mice were infected with S. aureus ATCC 13709 via injection of 0.1 ml into the right thigh muscle of each mouse. One and a half hours post infection mice were treated IV with test compounds in doses ranging from 0.3 to 30 mg/kg or 0.3 to 20 mg/kg. Four mice were treated with each drug concentration. Twenty-four hours post treatment, mice were euthanized by CO2 inhalation. The right thighs of the mice were aseptically removed, weighed, homogenized, serially diluted, and plated on TSA medium. The plates were incubated overnight at 37° C. in 5% CO2. Colony forming units per gram of thigh was calculated by enumerating the plated colonies then adjusting for serial dilutions and the weight of the thigh.

[3] = Pharmacokinetic studies in rats; conditions: male Sprague Dawley rats
Description: Pharmacokinetic Studies in Rats Test compounds were evaluated in fasted (no food for 18 hours prior to dosing) male Sprague Dawley rats (3 animals per group) by administration of 1 mg/kg intravenously into the jugular vein and […] by oral gavage. Ten plasma samples were drawn for each dosing route up to 24 hours into heparin-coated vacutainer tubes. The plasma concentrations of the test compounds were quantified by LC/MS/MS using an internal standards. WinNONLIN was used to determine PK parameters ±standard deviation (AUC, Cmax, CL, Vss and % oral bioavailabilty (% F) and are set forth in Table F.

## CN(C)[C@@H]1C(O)=C(C(N)=O)C(=O)[C@@]2(O)C(O)=C3C(=O)c4c(O)cc(CN(C)C(C)(C)C)c(F)c4C[C@H]3C[C@@H]12 [Compound S2-4-25]
[1]; ATCC13709, iv, 48 h, IV 3 mg/kg one hour post infection, survival at 48 hours, read-out: SA Smith septicemia survival IV (3 mg/kg)
  responders at 3 mg/kg: 100%
[1]; ATCC13709, po, 48 h, PO 30 mg/kg one hour post infection, survival at 48 hours, read-out: SA Smith septicemia survival PO (30 mg/kg)
  responders at 30 mg/kg: 100%
[1]; IV, read-out: SA Smith septicemia PD50 IV
  ED50: 0.35 mg/kg
[1]; PO, read-out: SA Smith septicemia PD50 PO
  ED50: 1.4 mg/kg
[2]; PO 2 mg/kg at 12 and 24 hours post infection
  log reduction at 2 mg/kg: 2.78
[2]; PO @ 3 mpk
  log reduction at 3 mg/kg: 3.63
S. aureus ATCC 13709
  log10 REDUCTION in colony forming units versus untreated control group (thigh): 4.1 log10
[3]; IV 1 mg/kg, urine, 12 h
  12 h urine, IV Rat PK: 12 h urine 11 ug/mL
[3]; rat, plasma, fasted, IV 1 mg/kg, read-out: Cl, IV Rat PK
  clearance: 19.4 mL/min/kg
[3]; rat, plasma, fasted, oral 10 mg/kg vs IV 1 mg/kg, read-out: % F (oral bioavailability), Oral Rat PK
  bioavailability: 9.1%
[3]; rat, fasted, IV 1 mg/kg, plasma, read-out: AUC, IV Rat PK
  AUC: 838 ng·h/mL
[3]; rat, fasted, IV 1 mg/kg, plasma, read-out: Cmax, IV Rat PK
  Cmax: 214 ng/mL
[3]; rat, fasted, oral gavage 10 mg/kg, plasma, read-out: AUC, Oral Rat PK
  AUC: 826 ng·h/mL
